Reference: patent US20150164916A1, “ROFLUMILAST COMPOSITIONS FOR THE TREATMENT OF COPD” (Forest Laboratories Holdings Ltd., priority 2012, published 2015)
“And” between values parts separate entries of the source, which are not always exact repeats. Identical values can stand only once. Like-named read-outs stand apart in the source and are kept apart here.

Assays:
Format in all cases: cell-based, human
MMP-9 release = experiment: LPS- or CSE-induced MMP-9 release in isolated peripheral blood neutrophils (LUMINEX); settings: for Maximal % Inhibition of MMP-9 release / IC50: 6 h; for IC50: Homo sapiens, Neutrophil, read-out: -log IC50, inhibition of MMP-9 release (converted)
Method: (§1) Neutrophils and monocytes were isolated from peripheral venous blood by standard laboratory procedures. In brief, peripheral venous blood was mixed with dextran 500 at 3% (in 0.9% saline) in a proportion of 2:1. This mixture was incubated at room temperature for 30 min until erythrocytes were sedimented. The upper phase was carefully collected and added on Ficoll-Paque Histopaque 1077 (Amershan Pharmacia Biotech, Barcelona, Spain) density gradient in a proportion of 3:1. The two phases generated were centrifuged at 150 g, 4° C. for 30 min. Thus, the interface was collected to isolate monocytes, and the pellet obtained (which is consisted a mixture of neutrophils and low proportion of residual erythrocytes and traces of eosinophils and basophils) was resuspended in an erythrocyte lysis buffer (Biolegend, UK) for 5 min in ice. Cell suspension was washed two times with phosphate buffer (PBS).
(§2) CSE was prepared as previously outlined (Milara et al.; Ortiz et al.). Briefly, the smoke of a research cigarette (2R4F; Tobacco Health Research, University of Kentucky, KY, USA) was generated by a respiratory pump (Apparatus Rodent Respirator 680; Harvard, Germany) through a puffing mechanism related to the human smoking pattern (3 puff/min; 1 puff 35 ml; each puff of 2 s duration with 0.5 cm above the filter) and was bubbled into a flask containing 25 ml of pre-warmed (37° C.) RPMI 1640 culture medium supplemented as describe above. The CSE solution was sterilized by filtration through a 0.22-μm cellulose acetate sterilizing system (Corning, N.Y.). The resultant CSE solution was considered to be 100% CSE and was used for experiments within 30 min of preparation. CSE 10% corresponds approximately to the exposure associated with smoking two packs per day (Su et al., 1998). The quality of the prepared CSE solution was assessed based on the absorbance at 320 nm, which is the specific absorption wavelength of peroxynitrite. Stock solutions with an absorbance value of 3.0±0.1 were used. To test for cytotoxicity from CSE, isolated neutrophils and monocytes were treated with CSE concentrations of up to 5% for 24.
(§3) Peripheral neutrophil cell suspension was adjusted to 500×10^3 cells per well in 24-well plates and incubated in RPMI culture medium for 1 h into the incubator at 37° C., 5% CO2. […] Both the stimulus and drug were remained together for 6 h. Supernatants were collected and centrifuged at 120 g for 5 min, and the free-cell supernatant was used to measure IL-8, MMP-9, IL-1β, GM-CSF and CCL-5.
(§4) IL-8 was determined by using commercially available enzyme-linked immunosorbent assay kit for IL-8 (R&D Systems, UK) according to the manufacturer's protocol. MMP-9, IL-1β, GM-CSF and CCL-5 were measured by LUMINEX technology according to the manufacturer's protocol.
(§5) Data were presented as mean±SEM. IC50 values were calculated for each drug and their combinations. Statistical analysis of results was carried out by analysis of variance (ANOVA) followed by Bonferroni test, by Student's t test, or by non-parametric tests as appropriate (GraphPad Software Inc, San Diego, Calif., USA). Significance was accepted when P<0.05. For clinical correlations of lung function and gene expression from neutrophils the non-parametric Spearman correlation analysis was carried out.

intracellular ROS = experiment: Intracellular reactive oxygen species (ROS) by flow cytometry in whole blood neutrophils from COPD patients; settings: fMLP 1 μM or CSE 5%, 1 h, NAC 1 mM
Method: Intracellular reactive oxygen species (ROS) were measured by a flow cytometry assay using 2′,7′-dichlorodihydrofluorescein diacetate (H2DCF-DA, Molecular Probes, UK) as previously outlined (Milara et al., 2010). H2DCF-DA was added for 15 min before stimulus to a final concentration of 5 μM to measure intracellular ROS. The bacterial peptide fMLP was added as stimulus at 1 μM […] to generate intracellular ROS (Elbim et al., 2001). In other experiments, to reproduce in vivo conditions, CSE 5% was added to generate intracellular ROS. Intracellular ROS was measured using fresh whole blood from COPD patients. Blood neutrophils were selected using CD16-Alexa Fluor 647 antibody (molecular probes, UK) as neutrophil marker, and CD14-PerCEP-Cy5.5 mouse antihuman (molecular probes, UK) as monocyte marker in an Epics Profile II flow cytometer. A total of 1 ml of whole blood was pre-incubated at 37° C. for 30 min with RNO ([…] (1 mM) and H2DCF-DA followed by fMLP 1 μM or CSE 5% stimulation for another 1 h. Then erythrocytes were lysed using a commercial erythrocyte lysis buffer (Biolegend, UK) for 10 min. Fluorescence intensity was measured in the polymorphonuclear region of whole blood in an Epics Profile II flow cytometer. Results were expressed as DCF fluorescence in relative fluorescence units (RFU).
To this end, whole blood was stimulated with the bacterial peptide fMLP 1 μM or with CSE 5% in presence or absence of RNO or NAC for 1 h.

GCβ = experiment: Real time RT-PCR of GCβ mRNA in CSE-stimulated neutrophils from COPD patients; settings: RNO 1 nM and 1 μM, DEX 1 μM, RNO 1 nM plus DEX 1 μM, NAC 1 mM, CSE 5%
Method: (§6) Neutrophils and monocytes were isolated from peripheral venous blood by standard laboratory procedures. In brief, peripheral venous blood was mixed with dextran 500 at 3% (in 0.9% saline) in a proportion of 2:1. This mixture was incubated at room temperature for 30 min until erythrocytes were sedimented. The upper phase was carefully collected and added on Ficoll-Paque Histopaque 1077 (Amershan Pharmacia Biotech, Barcelona, Spain) density gradient in a proportion of 3:1. The two phases generated were centrifuged at 150 g, 4° C. for 30 min. […]
(§7) CSE was prepared as previously outlined (Milara et al.; Ortiz et al.). […] The quality of the prepared CSE solution was assessed based on the absorbance at 320 nm, which is the specific absorption wavelength of peroxynitrite. Stock solutions with an absorbance value of 3.0±0.1 were used. […]
(§8) Total RNA was obtained from isolated neutrophils under basal conditions or after different drug and stimulation periods defined above by using TriPure® Isolation Reagent (Roche, Indianapolis, USA). […] Relative quantification of these transcripts was determined with the 2^−ΔΔCt method using glyceraldehyde phosphate dehydrogenase (GAPDH) as endogenous control (Applied Biosystems; 4352339E) and normalized to control group as previously described (Milara et al., 2009).
(§9) Then, mRNA was isolated and quantified for different genes.

IL-8 release = experiment: LPS- or CSE-induced IL-8 release in isolated peripheral blood neutrophils (ELISA); settings: for Maximal % Inhibition of IL-8 release / IC50: 6 h; for IC50: Homo sapiens, Neutrophil, read-out: -log IC50, inhibition of IL-8 release (converted)
Method: as §1, §2, §3, §4, §5

PI3Kδ = experiment: Real time RT-PCR of PI3Kδ expression in CSE-stimulated neutrophils from COPD patients; settings: RNO 1 nM and 1 μM, DEX 1 μM, RNO 1 nM plus DEX 1 μM, NAC 1 mM, CSE 5%
Method: as §6, §7, §8, §9

p-ERK1/2 = experiment: Western blot of ERK1/2 phosphorylation in CSE-stimulated neutrophils from COPD patients; settings: RNO 1 nM and 1 μM, DEX 1 μM, RNO 1 nM plus DEX 1 μM, NAC 1 mM for 1 h, then CSE 5% 20 min
Method: as §6, §7
Western blot analysis was used to detect changes in p-ERK1/2 (42-44 kD). […] Cells were then centrifuged and the total protein was extracted using a lysis buffer consisting of a complete inhibitor cocktail plus 1 mM ethylenediaminetetraacectic acid (Roche Diagnostics Ltd, West Sussex, UK) with 20 mM Tris base, 0.9% NaCl, 0.1% Triton X-100, 1 mM dithiothreitol and 1 μg mL^−1 pepstatin A. The Bio-Rad assay (Bio-Rad Laboratories Ltd., Herts, UK) was used (following manufacturer's instructions) to quantify the level of protein in each sample to ensure equal protein loading. […]

HDAC2 = experiment: Real time RT-PCR of HDAC2 expression in CSE-stimulated neutrophils from COPD patients; settings: RNO 1 nM and 1 μM, DEX 1 μM, RNO 1 nM plus DEX 1 μM, NAC 1 mM, CSE 5%
Method: as §6, §7, §8, §9

MKP1 = experiment: Real time RT-PCR of MKP1 mRNA in CSE-stimulated neutrophils from COPD patients; settings: RNO 1 nM and 1 μM, DEX 1 μM, RNO 1 nM plus DEX 1 μM, NAC 1 mM for 1 h, then CSE 5% 6 h
Method: as §6, §7, §8, §9

MIF = experiment: Real time RT-PCR of MIF mRNA in CSE-stimulated neutrophils from COPD patients; settings: RNO 1 nM and 1 μM, DEX 1 μM, RNO 1 nM plus DEX 1 μM, NAC 1 mM for 1 h, then CSE 5% 6 h
Method: as §6, §7, §8, §9

IL-1β release = experiment: LPS-induced IL-1β release in isolated peripheral blood neutrophils (LUMINEX); settings: for IC50: Homo sapiens, Neutrophil
Method: as §1, §3, §4, §5

CCL-5 release = experiment: LPS-induced CCL-5 release in isolated peripheral blood neutrophils (LUMINEX); settings: for IC50: Homo sapiens, Neutrophil
Method: as §1, §3, §4, §5

[1] = COPD neutrophils stimulated with LPS or CSE, LY-294002 10 μM, NAC 1 mM
[2] = CSE 5%, neutrophils from COPD patients
[3] = CSE 5%, neutrophils from HEALTHY
[4] = LPS (1 μg/ml), neutrophils from COPD patients
[5] = LPS (1 μg/ml), neutrophils from HEALTHY
[6] = LPS (1 μg/ml), 6 h, neutrophils from COPD patients
[7] = LPS (1 μg/ml), 6 h, neutrophils from HEALTHY

## CC(=O)N[C@@H](CS)C(=O)O [NAC, N-acetyl-1-cysteine]
MMP-9 release; [1]
  rescue of DEX anti-inflammatory effect on MMP-9 release: able to rescue DEX anti-inflammatory effect
Intracellular ROS
  effect on ROS generation in neutrophils: inhibited
GCβ
  effect on CSE-induced GCβ upregulation: inhibited
IL-8 release; [1]
  rescue of DEX anti-inflammatory effect on IL-8 release: able to rescue DEX anti-inflammatory effect
PI3Kδ
  effect on CSE-induced PI3Kδ upregulation: inhibited
p-ERK1/2
  effect on CSE-induced phosphorylation of ERK1/2: inhibited
HDAC2
  effect on CSE-induced HDAC2 downregulation: inhibited
MKP1
  effect on CSE-induced down-regulation of MKP1 mRNA expression: effectively increased
MIF
  effect on CSE-induced increase of MIF mRNA expression: reduced

## C[C@@H]1C[C@H]2[C@@H]3CCC4=CC(=O)C=C[C@]4(C)[C@@]3(F)[C@@H](O)C[C@]2(C)[C@@]1(O)C(=O)CO [DEX, dexamethasone]
MMP-9 release; [2]
  Maximal % Inhibition of MMP-9 release: 15.4% and 15.44 ± 6.95 %
  IC50: 2.19 nM
MMP-9 release; [3]
  Maximal % Inhibition of MMP-9 release: 83.9 ± 5.79%
  IC50: 1.38 nM
MMP-9 release; [4]
  IC50: 46.8 nM
  Maximal % Inhibition of MMP-9 release: 8.8%
MMP-9 release; [5]
  IC50: 6.03 nM
  Maximal % Inhibition of MMP-9 release: 96.8 ± 5.1%
IL-8 release; [2]
  Maximal % Inhibition of IL-8 release: 20.6%
  IC50: 15.5 nM
IL-8 release; [3]
  Maximal % Inhibition of IL-8 release: 94.33 ± 21.7%
  IC50: 17 nM
IL-8 release; [4]
  IC50: 42.7 nM
  Maximal % Inhibition of IL-8 release: 15%
IL-8 release; [5]
  IC50: 47.9 nM
  Maximal % Inhibition of IL-8 release: 67.08 ± 11.41%
IL-1β release; 6 h, LPS (1 μg/ml), 6 h, neutrophils from COPD patients, read-out: -log IC50, inhibition of IL-1β release (converted)
  IC50: 45.7 nM
IL-1β release; 6 h, LPS (1 μg/ml), 6 h, neutrophils from HEALTHY, read-out: -log IC50, inhibition of IL-1β release (converted)
  IC50: 10.7 nM
IL-1β release; LPS, neutrophils from COPD patients, read-out: -log IC50, IL-1β release (converted)
  IC50: 45.7 nM
IL-1β release; LPS, neutrophils from healthy volunteers, read-out: -log IC50, IL-1β release (converted)
  IC50: 10.7 nM
IL-1β release; [6]
  Maximal % Inhibition of IL-1β release: 77.16 ± 5.69%
IL-1β release; [7]
  Maximal % Inhibition of IL-1β release: 79.58 ± 5.57%
CCL-5 release; 6 h, LPS (1 μg/ml), 6 h, neutrophils from COPD patients, read-out: -log IC50, inhibition of CCL-5 release (converted)
  IC50: 32.4 nM
CCL-5 release; 6 h, LPS (1 μg/ml), 6 h, neutrophils from HEALTHY, read-out: -log IC50, inhibition of CCL-5 release (converted)
  IC50: 7.24 nM
CCL-5 release; LPS, neutrophils from COPD patients, read-out: -log IC50, CCL-5 release (converted)
  IC50: 32.4 nM
CCL-5 release; LPS, neutrophils from healthy volunteers, read-out: -log IC50, CCL-5 release (converted)
  IC50: 7.24 nM
CCL-5 release; [6]
  Maximal % Inhibition of CCL-5 release: 86.30 ± 10.16%
CCL-5 release; [7]
  Maximal % Inhibition of CCL-5 release: 83.78 ± 8.64%
